# Test results from patent US11459336B2, “Pyrazine carbamates and their use as GluN2B receptor modulators” (JANSSEN PHARMACEUTICA NV, priority 2019, dated 2022).
# Columns and labels:
# [1] = target: T1, human GluN1/GluN2B NMDA receptors (Homo sapiens, UniProt Q05586+Q13224); assay: Calcium flux (FLIPR) assay on cloned human GluN1/GluN2B ion channels expressed in mammalian cells, standard assay; format: cell-based; settings: glutamate ~EC40, 10 μM glycine, stable cell line with Tet-On induced expression
# T1 construct: expressed in transfected cells
# T1 sequence (Q13224 27-1484, other chains not shown): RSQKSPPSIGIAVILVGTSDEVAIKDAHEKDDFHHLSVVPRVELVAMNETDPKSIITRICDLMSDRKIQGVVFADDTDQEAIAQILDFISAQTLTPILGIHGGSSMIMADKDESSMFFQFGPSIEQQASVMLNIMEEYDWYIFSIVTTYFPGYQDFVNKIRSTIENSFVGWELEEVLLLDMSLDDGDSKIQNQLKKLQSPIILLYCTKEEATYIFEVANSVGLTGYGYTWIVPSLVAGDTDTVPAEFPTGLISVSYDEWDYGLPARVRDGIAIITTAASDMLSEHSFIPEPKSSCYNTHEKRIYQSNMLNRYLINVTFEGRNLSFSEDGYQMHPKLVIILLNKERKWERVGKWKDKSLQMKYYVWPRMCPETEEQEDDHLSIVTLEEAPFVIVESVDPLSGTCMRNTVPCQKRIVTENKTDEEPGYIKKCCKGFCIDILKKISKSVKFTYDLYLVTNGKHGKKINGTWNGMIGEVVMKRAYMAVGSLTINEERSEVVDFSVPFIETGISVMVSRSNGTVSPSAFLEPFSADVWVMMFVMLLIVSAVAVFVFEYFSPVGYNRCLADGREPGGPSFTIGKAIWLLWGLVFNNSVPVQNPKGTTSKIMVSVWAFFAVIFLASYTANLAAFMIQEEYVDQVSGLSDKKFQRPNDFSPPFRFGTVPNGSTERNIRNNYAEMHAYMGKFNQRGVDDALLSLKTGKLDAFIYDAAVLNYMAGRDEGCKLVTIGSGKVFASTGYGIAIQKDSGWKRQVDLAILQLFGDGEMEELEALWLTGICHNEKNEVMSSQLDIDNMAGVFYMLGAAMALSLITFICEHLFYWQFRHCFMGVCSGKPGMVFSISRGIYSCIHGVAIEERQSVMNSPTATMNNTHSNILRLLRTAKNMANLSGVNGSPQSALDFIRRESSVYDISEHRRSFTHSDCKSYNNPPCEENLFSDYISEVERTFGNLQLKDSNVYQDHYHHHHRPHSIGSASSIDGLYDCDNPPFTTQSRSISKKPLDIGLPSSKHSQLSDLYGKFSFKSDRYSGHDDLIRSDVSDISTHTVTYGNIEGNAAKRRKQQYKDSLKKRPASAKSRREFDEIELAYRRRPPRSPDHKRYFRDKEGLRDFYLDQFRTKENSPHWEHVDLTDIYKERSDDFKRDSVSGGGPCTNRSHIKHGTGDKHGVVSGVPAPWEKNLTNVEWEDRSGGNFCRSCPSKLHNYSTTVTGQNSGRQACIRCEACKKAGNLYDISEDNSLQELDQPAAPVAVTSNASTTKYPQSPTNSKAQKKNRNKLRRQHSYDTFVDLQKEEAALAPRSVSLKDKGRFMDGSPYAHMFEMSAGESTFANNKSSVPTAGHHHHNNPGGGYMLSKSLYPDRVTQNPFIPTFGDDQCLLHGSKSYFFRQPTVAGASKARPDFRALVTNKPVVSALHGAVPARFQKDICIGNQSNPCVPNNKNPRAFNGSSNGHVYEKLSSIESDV
# Protocol: (§1) NMDA receptors are ion channels that are highly permeable to Ca^2+ ions, rendering it possible to monitor NMDA receptor function using cell-based calcium flux assay. In this assay, co-agonists glutamate and glycine are added to cells heterologously expressing human GluN1/GluN2B NMDA receptors to initiate cellular Ca^2+ influx. The time course of the changes in intracellular calcium is measured using a fluorescent dye and a FLIPR (Fluorometric Imaging Plate Reader) device.
# (§2) Twenty four hours before measurements, the expression of the NMDA receptors in the stable cell line is induced with Tet-On inducible system in the presence of a non-selective NMDA receptor blocker. On the day of the experiment, cell culture media is carefully washed and the cells are loaded with Calcium 5 Dye Kit (Molecular Devices) in dye loading buffer containing 137 mM NaCl, 4 mM KCl, 2 mM CaCl2, 0.5 mM MgCl2 (standard assay) or 1.5 mM MgCl2 (HTS assay), 10 mM HEPES and 5 mM D-glucose; pH 7.4. After 1 h incubation at the room temperature, the dye is washed away with the assay buffer (137 mM NaCl (standard assay) or 150 mM (HTS assay), 4 mM KCl (standard assay) or 3 mM (HTS assay), 2 mM CaCl2, 0.01 mM EDTA, 10 mM HEPES and 5 mM D-glucose; pH 7.4) In the FLIPR TETRA reader, various concentrations of the test compounds are added to the cells for 5 min while fluorescence is monitored to detect potential agonist activity. Next, co-agonists, glutamate and glycine are added for another 5 minutes. The concentration of glutamate corresponding to ˜EC40 (standard assay) or EC40 (HTS assay) is used to maximize the assay's signal window and ability to detect NMDA receptor antagonists and negative allosteric modulators. A saturating concentration (10 μM) of glycine is also present in the assay. A non-selective NMDA receptor antagonist, (+)MK-801 is used as a positive control for antagonist activity. The fluorescent signal in the presence of test compounds is quantified and normalized to the signal defined by the appropriate control wells.
# [2] = Liver microsomal stability assay (extraction ratio); format: in vitro ADME; settings: test compound 1 μM; 0.5 mg/mL liver microsomes, 1 mM NADPH, 37° C.; species not given (method: mouse, rat, and human)
# Protocol: Microsomal stability studies (see, Chrovian et al, “1H-Pyrrolo[3,2-b]pyridine GluN2B-Selective Negative Allosteric Modulators”. ACS Med Chem Lett. 2019 Jan. 10; 10(3):261-266) were conducted on a Biomek® FX Robotic Liquid Handling Workstation (Beckman Coulter, Brea, Calif.), which consists of a 96-channel pipette head, a 12-position workstation deck, and a plate incubator. Test compounds (1 μM) were spiked in a reaction mix consisting of 100 mM potassium phosphate buffer (pH 7.4), 3 mM MgCl2, and 0.5 mg/mL liver microsomes from mouse, rat, and human (BD Gentest). The reaction was brought to 37° C. and initiated by adding NADPH to a final concentration of 1 mM. After mixing on the platedeck, 50 μL aliquots were excised from the reaction plate at 0, 5, 10, 20, 40, and 60 min and quenched with four volumes of acetonitrile spiked with […] of the internal standard phenytoin. Quenched plates were centrifuged at 5700 rpm for 10 min at 4° C., and supernatant was diluted 1:3 in water before LC/MS/MS analysis. The compound half-lives were derived from plots of the ln of percent remaining compound over time to determine the intrinsic clearance. The predicted hepatic clearance was derived from the intrinsic clearance value using equations from the well-stirred model (Current Drug Metabolism, 2008, 9, 940-951), where no correction was made plasma protein binding and the blood to plasma concentration ratio was assumed to be one. The extraction ratio (ER) was calculated by dividing the predicted hepatic clearance by species blood flow (Q), where Q is 90, 55, and 21.7 mL/min/kg for mouse, rat and human, respectively.
# [3] = target: T2, human GluN1/GluN2B NMDA receptors (Homo sapiens, UniProt Q13224); assay: Calcium flux (FLIPR) assay on cloned human GluN1/GluN2B ion channels expressed in mammalian cells, standard assay; format: cell-based; settings: glutamate ~EC40, 10 μM glycine, stable cell line with Tet-On induced expression
# T2 construct: expressed in transfected cells
# T2 sequence (Q13224 27-1484, other chains not shown): as above
# Protocol: as §1, §2
smiles,measurement,setting,value
"CNC(=O)C1CN(Cc2cncc(-c3ccc(F)c(C(F)F)c3)n2)C(=O)O1 (racemic) [Example 59, (R/S)-3-[[6-[3-(Difluoromethyl)-4-fluoro-phenyl]pyrazin-2-yl]methyl]-N-methyl-2-oxo-oxazolidine-5-carboxamide]",IC50,[1],> 3000 nM
same,Extraction Ratio @ 1 μM,[2],0.18
"O=C1OC2(CC2)CN1Cc1cncc(-c2ccc(F)c(C(F)F)c2)n1 [Example 3, 5-[[6-[3-(Difluoromethyl)-4-fluoro-phenyl]pyrazin-2-yl]methyl]-7-oxa-5-azaspiro[2.4]heptan-6-one]",IC50,[3],13 nM
same,Extraction Ratio @ 1 μM,[2],0.05
"C[C@H]1COC(=O)N1Cc1cncc(-c2ccc(F)c(C(F)F)c2)n1 [Example 8, (4S)-3-[[6-[3-(Difluoromethyl)-4-fluoro-phenyl]pyrazin-2-yl]methyl]-4-methyl-oxazolidin-2-one]",IC50,[3],872 nM
same,Extraction Ratio @ 1 μM,[2],0.06
"Cc1ncc(-c2ccc(F)c(C(F)F)c2)nc1CN1C(=O)OC[C@H]1C [Example 11, (4R)-3-[[6-[3-(Difluoromethyl)-4-fluoro-phenyl]-3-methyl-pyrazin-2-yl]methyl]-4-methyl-oxazolidin-2-one]",IC50,[3],192 nM
same,Extraction Ratio @ 1 μM,[2],0.18
"Cc1ncc(-c2ccc(F)c(C(F)F)c2)nc1CN1CCCOC1=O [Example 15, 3-[[6-[3-(Difluoromethyl)-4-fluoro-phenyl]-3-methyl-pyrazin-2-yl]methyl]-1,3-oxazinan-2-one]",IC50,[3],65 nM
same,Extraction Ratio @ 1 μM,[2],0.06
